Assay results reported in the NIST ThermoML archive (doi:10.1016/j.jct.2003.12.005).

Columns and labels:
[1] = xn = mol fraction of the nth substance listed; settings: 101.3 kPa, Liquid
[2] = 101.3 kPa, Liquid

CCCCCCCCCCCC [dodecane] + CCC(C)O
[1]
Settings | mass density, 293.15 K [kg/m3] | mass density, 298.15 K [kg/m3] | mass density, 303.15 K [kg/m3] | speed of sound, 293.15 K [m/s] | speed of sound, 298.15 K [m/s] | speed of sound, 303.15 K [m/s] | viscosity, 293.15 K [mPa·s] | viscosity, 298.15 K [mPa·s] | viscosity, 303.15 K [mPa·s]
x2 = 0 | 748.5 | 744.9 | 741.3 | 1297 | 1278 | 1259 | 1.454 | 1.327 | 1.219
x2 = 0.0486 | 749.3 | 745.6 | 741.9 | 1293 | 1274 | 1255 | 1.44 | 1.314 | 1.204
x2 = 0.0976 | 750.2 | 746.4 | 742.7 | 1289 | 1270 | 1251 | 1.431 | 1.305 | 1.194
x2 = 0.2046 | 752.5 | 748.7 | 744.9 | 1282 | 1263 | 1243 | 1.429 | 1.299 | 1.188
x2 = 0.2956 | 754.9 | 751.1 | 747.2 | 1276 | 1256 | 1237 | 1.432 | 1.297 | 1.179
x2 = 0.3959 | 758.1 | 754.2 | 750.3 | 1268 | 1249 | 1230 | 1.457 | 1.316 | 1.196
x2 = 0.4979 | 762.2 | 758.3 | 754.3 | 1261 | 1242 | 1222 | 1.503 | 1.351 | 1.22
x2 = 0.598 | 767.2 | 763.2 | 759.1 | 1255 | 1235 | 1216 | 1.603 | 1.425 | 1.276
x2 = 0.7021 | 773.9 | 769.8 | 765.6 | 1248 | 1229 | 1209 | 1.798 | 1.576 | 1.392
x2 = 0.8008 | 781.9 | 777.8 | 773.6 | 1242 | 1223 | 1204 | 2.068 | 1.785 | 1.566
x2 = 0.9002 | 792.7 | 788.5 | 784.3 | 1236 | 1217 | 1199 | 2.576 | 2.184 | 1.866
x2 = 0.9504 | 799.1 | 794.9 | 790.7 | 1233 | 1215 | 1196 | 2.989 | 2.508 | 2.122

CCC(C)O (configuration not stated) [butan-2-ol]
[2]
Settings | mass density [kg/m3] | speed of sound [m/s] | viscosity [mPa·s]
293.15 K | 806.8 | 1230 | 3.623
298.15 K | 802.7 | 1212 | 2.995
303.15 K | 798.5 | 1194 | 2.493

CCCCCCCC [octane] + CCC(C)O
[1], x2 = 0
Settings | mass density [kg/m3] | speed of sound [m/s] | viscosity [mPa·s]
293.15 K | 702.6 | 1193 | 0.538
298.15 K | 698.5 | 1173 | 0.506
303.15 K | 694.5 | 1152 | 0.478

CCCCCCCCCC [decane]
[2]
Settings | mass density [kg/m3] | speed of sound [m/s] | viscosity [mPa·s]
293.15 K | 729.9 | 1254 | 0.911
298.15 K | 726.1 | 1235 | 0.845
303.15 K | 722.3 | 1215 | 0.787

CCC(C)O (configuration not stated) [butan-2-ol] + CCCCCCCCCC
[1], x1 = 1
Settings | mass density [kg/m3] | speed of sound [m/s] | viscosity [mPa·s]
293.15 K | 806.8 | 1230 | 3.623
298.15 K | 802.7 | 1212 | 2.995
303.15 K | 798.5 | 1194 | 2.493

CCC(C)O (configuration not stated) [butan-2-ol] + CCCCCCCC
[1]
Settings | mass density, 293.15 K [kg/m3] | mass density, 298.15 K [kg/m3] | mass density, 303.15 K [kg/m3] | speed of sound, 293.15 K [m/s] | speed of sound, 298.15 K [m/s] | speed of sound, 303.15 K [m/s] | viscosity, 293.15 K [mPa·s] | viscosity, 298.15 K [mPa·s] | viscosity, 303.15 K [mPa·s]
x1 = 0.0481 | 704.6 | 700.5 | 696.4 | 1190 | 1169 | 1148 | 0.541 | 0.508 | 0.478
x1 = 0.0974 | 707.2 | 703.1 | 698.9 | 1187 | 1167 | 1146 | 0.554 | 0.519 | 0.488
x1 = 0.1984 | 713.3 | 709.2 | 704.9 | 1184 | 1163 | 1143 | 0.582 | 0.544 | 0.511
x1 = 0.289 | 719.4 | 715.2 | 711 | 1182 | 1161 | 1141 | 0.624 | 0.579 | 0.541
x1 = 0.3964 | 727.7 | 723.5 | 719.1 | 1181 | 1161 | 1141 | 0.697 | 0.644 | 0.599
x1 = 0.4923 | 736.2 | 731.9 | 727.5 | 1183 | 1162 | 1142 | 0.78 | 0.713 | 0.645
x1 = 0.5931 | 746.5 | 742.1 | 737.8 | 1187 | 1166 | 1146 | 0.927 | 0.84 | 0.761
x1 = 0.6922 | 758.1 | 753.8 | 749.4 | 1193 | 1173 | 1153 | 1.162 | 1.031 | 0.919
x1 = 0.7987 | 772.5 | 768.2 | 763.9 | 1202 | 1182 | 1163 | 1.574 | 1.361 | 1.191
x1 = 0.8988 | 788.3 | 784 | 779.7 | 1214 | 1195 | 1176 | 2.267 | 1.932 | 1.662
x1 = 0.9495 | 797.2 | 793 | 788.8 | 1222 | 1203 | 1185 | 2.809 | 2.353 | 1.99
x1 = 1 | 806.8 | 802.7 | 798.5 | 1230 | 1212 | 1194 | 3.623 | 2.995 | 2.493

CCCCCCCCCCCC [dodecane]
[2]
Settings | mass density [kg/m3] | speed of sound [m/s] | viscosity [mPa·s]
293.15 K | 748.5 | 1297 | 1.454
298.15 K | 744.9 | 1278 | 1.327
303.15 K | 741.3 | 1259 | 1.219

CCC(C)O (configuration not stated) [butan-2-ol] + CCCCCCCCCCCC
[1], x1 = 1
Settings | mass density [kg/m3] | speed of sound [m/s] | viscosity [mPa·s]
293.15 K | 806.8 | 1230 | 3.623
298.15 K | 802.7 | 1212 | 2.995
303.15 K | 798.5 | 1194 | 2.493

CCCCCCCCCC [decane] + CCC(C)O
[1]
Settings | mass density, 293.15 K [kg/m3] | mass density, 298.15 K [kg/m3] | mass density, 303.15 K [kg/m3] | speed of sound, 293.15 K [m/s] | speed of sound, 298.15 K [m/s] | speed of sound, 303.15 K [m/s] | viscosity, 293.15 K [mPa·s] | viscosity, 298.15 K [mPa·s] | viscosity, 303.15 K [mPa·s]
x2 = 0 | 729.9 | 726.1 | 722.3 | 1254 | 1235 | 1215 | 0.911 | 0.845 | 0.787
x2 = 0.0488 | 730.9 | 727.1 | 723.2 | 1250 | 1230 | 1210 | 0.9 | 0.833 | 0.774
x2 = 0.0992 | 732.4 | 728.5 | 724.6 | 1246 | 1226 | 1207 | 0.905 | 0.836 | 0.776
x2 = 0.2038 | 736.2 | 732.2 | 728.2 | 1240 | 1220 | 1201 | 0.926 | 0.854 | 0.791
x2 = 0.3041 | 740.4 | 736.4 | 732.4 | 1235 | 1215 | 1195 | 0.956 | 0.88 | 0.812
x2 = 0.3972 | 745 | 741 | 736.9 | 1230 | 1211 | 1191 | 1.008 | 0.922 | 0.847
x2 = 0.498 | 751 | 746.9 | 742.8 | 1227 | 1207 | 1187 | 1.09 | 0.989 | 0.901
x2 = 0.5972 | 758.1 | 754 | 749.8 | 1224 | 1204 | 1185 | 1.222 | 1.091 | 0.983
x2 = 0.703 | 767.5 | 763.3 | 759 | 1223 | 1203 | 1184 | 1.454 | 1.286 | 1.142
x2 = 0.8001 | 777.7 | 773.5 | 769.2 | 1224 | 1204 | 1185 | 1.787 | 1.548 | 1.351
x2 = 0.9002 | 790.5 | 786.4 | 782.1 | 1225 | 1207 | 1188 | 2.389 | 2.026 | 1.736
x2 = 0.9497 | 798.2 | 794 | 789.8 | 1228 | 1209 | 1191 | 2.879 | 2.418 | 2.047

CCCCCCCC [octane]
[2]
Settings | mass density [kg/m3] | speed of sound [m/s] | viscosity [mPa·s]
293.15 K | 702.6 | 1193 | 0.538
298.15 K | 698.5 | 1173 | 0.506
303.15 K | 694.5 | 1152 | 0.478
